In ChEMBL document CHEMBL1201862, “PubChem BioAssay data set” (2004):
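Dose response: 5 concentrations. Exposure: 48 h. Format: 96-well plates. Endpoint: linear interpolation; highest concentration if not reached. Here, GI50 denotes the concentration required for 50% inhibition of growth.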 Active and inactive are the calls of the source. No stated cut-off is given here; in the data, active = GI50 up to about 1.1 µM and inactive = higher.

What was measured:
Test in all cases: DTP human tumour cell line panel, 48 h
[1] = system: 786-0
[2] = system: A549
[3] = system: CCRF-CEM
[4] = system: COLO 205
[5] = system: DLD-1
[6] = system: DMS-114
[7] = system: DMS-273
[8] = system: HL-60
[9] = system: HOP-62
[10] = system: IGROV-1
[11] = system: K562
[12] = system: KM-20L2
[13] = system: LOX IMVI
[14] = system: LXFL 529
[15] = system: M19-MEL
[16] = system: MOLT-4
[17] = system: NCI-H23
[18] = system: NCI-H460
[19] = system: OVCAR-3
[20] = system: OVCAR-5
[21] = system: OVCAR-8
[22] = system: RPMI-8226
[23] = system: RXF 393
[24] = system: SF-268
[25] = system: SK-MEL-2
[26] = system: SK-MEL-5
[27] = system: SK-OV-3
[28] = system: SNB-19
[29] = system: SNB-75
[30] = system: SW-620
[31] = system: U-251
[32] = system: UACC-257
[33] = system: UO-31
[34] = system: XF498
[35] = system: A498
[36] = system: ACHN
[37] = system: CAKI-1
[38] = system: EKVX
[39] = system: HCC 2998
[40] = system: HCT-116
[41] = system: HCT-15
[42] = system: HOP-18
[43] = system: HOP-92
[44] = system: HT-29
[45] = system: KM12
[46] = system: M14
[47] = system: Malme-3M
[48] = system: NCI-H226
[49] = system: NCI-H522
[50] = system: OVCAR-4
[51] = system: SF-295
[52] = system: SF-539
[53] = system: SK-MEL-28
[54] = system: SN12C
[55] = system: SNB-78
[56] = system: SR
[57] = system: TK-10
[58] = system: UACC-62

COc1cc(CNc2ccc(C)cc2)cc(OC)c1OC
GI50 [1]: 0.376 µM (active)
GI50 [2]: 0.423 µM (active)
GI50 [3]: 0.259 µM (active)
GI50 [4]: 0.151 µM (active)
GI50 [5]: 0.375 µM (active)
GI50 [6]: 0.225 µM (active)
GI50 [7]: 0.0925 µM (active)
GI50 [8]: 0.0948 µM (active)
GI50 [9]: 0.44 µM (active)
GI50 [10]: 0.577 µM (active)
GI50 [11]: 0.148 µM (active)
GI50 [12]: 0.159 µM (active)
GI50 [13]: 0.46 µM (active)
GI50 [14]: 0.46 µM (active)
GI50 [15]: 0.252 µM (active)
GI50 [16]: 0.175 µM (active)
GI50 [17]: 0.277 µM (active)
GI50 [18]: 0.471 µM (active)
GI50 [19]: 0.179 µM (active)
GI50 [20]: 1.02 µM (active)
GI50 [21]: 0.65 µM (active)
GI50 [22]: 0.5 µM (active)
GI50 [23]: 0.301 µM (active)
GI50 [24]: 0.615 µM (active)
GI50 [25]: 0.417 µM (active)
GI50 [26]: 0.923 µM (active)
GI50 [27]: 0.251 µM (active)
GI50 [28]: 0.356 µM (active)
GI50 [29]: 0.21 µM (active)
GI50 [30]: 0.11 µM (active)
GI50 [31]: 0.252 µM (active)
GI50 [32]: 7.05 µM (inactive)
GI50 [33]: 0.843 µM (active)
GI50 [34]: 1.29 µM (inactive)

COC(=O)C1CC(=O)CCC1c1ccccc1 (configuration not stated)
GI50 [1]: > 100 µM (inactive)
GI50 [35]: > 100 µM (inactive)
GI50 [2]: > 100 µM (inactive)
GI50 [36]: > 100 µM (inactive)
GI50 [37]: > 100 µM (inactive)
GI50 [3]: > 100 µM (inactive)
GI50 [4]: > 100 µM (inactive)
GI50 [5]: > 100 µM (inactive)
GI50 [6]: > 100 µM (inactive)
GI50 [7]: > 100 µM (inactive)
GI50 [38]: > 100 µM (inactive)
GI50 [39]: > 100 µM (inactive)
GI50 [40]: > 100 µM (inactive)
GI50 [41]: > 100 µM
GI50 [8]: > 100 µM (inactive)
GI50 [42]: > 100 µM (inactive)
GI50 [9]: > 100 µM (inactive)
GI50 [43]: > 100 µM (inactive)
GI50 [44]: > 100 µM (inactive)
GI50 [10]: > 100 µM (inactive)
GI50 [11]: > 100 µM (inactive)
GI50 [12]: > 100 µM (inactive)
GI50 [45]: > 100 µM (inactive)
GI50 [13]: > 100 µM (inactive)
GI50 [14]: > 100 µM (inactive)
GI50 [46]: > 100 µM (inactive)
GI50 [15]: > 100 µM (inactive)
GI50 [16]: > 100 µM (inactive)
GI50 [47]: > 100 µM (inactive)
GI50 [48]: > 100 µM (inactive)
GI50 [17]: > 100 µM (inactive)
GI50 [18]: > 100 µM (inactive)
GI50 [49]: > 100 µM (inactive)
GI50 [19]: > 100 µM (inactive)
GI50 [50]: > 100 µM (inactive)
GI50 [20]: > 100 µM (inactive)
GI50 [21]: > 100 µM (inactive)
GI50 [22]: > 100 µM (inactive)
GI50 [24]: > 100 µM (inactive)
GI50 [51]: > 100 µM (inactive)
GI50 [52]: > 100 µM (inactive)
GI50 [53]: > 100 µM (inactive)
GI50 [25]: > 100 µM (inactive)
GI50 [26]: > 100 µM (inactive)
GI50 [27]: > 100 µM (inactive)
GI50 [54]: > 100 µM (inactive)
GI50 [28]: > 100 µM (inactive)
GI50 [29]: > 100 µM (inactive)
GI50 [55]: > 100 µM (inactive)
GI50 [56]: > 100 µM (inactive)
GI50 [30]: > 100 µM (inactive)
GI50 [57]: > 100 µM (inactive)
GI50 [31]: > 100 µM (inactive)
GI50 [32]: > 100 µM (inactive)
GI50 [58]: > 100 µM (inactive)
GI50 [33]: > 100 µM (inactive)

COc1cc(C2c3cc4c(cc3[C@@H](NCCN(C)C)C3COC(=O)[C@H]23)OCO4)cc(OC)c1O (some centres not stated)
GI50 [5]: 1.06 µM (active)
GI50 [41]: 0.147 µM
GI50 [43]: 0.0232 µM (active)
GI50 [44]: 0.536 µM (active)
GI50 [11]: 0.253 µM (active)
GI50 [45]: 0.475 µM (active)
GI50 [14]: 1.43 µM (inactive)
GI50 [46]: 0.229 µM (active)
GI50 [15]: 0.575 µM (active)
GI50 [47]: 0.21 µM (active)
GI50 [19]: 1.05 µM (active)
GI50 [50]: 1.98 µM (inactive)
GI50 [22]: 0.455 µM (active)
GI50 [52]: 0.0375 µM (active)
GI50 [53]: 0.284 µM (active)
GI50 [26]: 0.0869 µM (active)
GI50 [28]: 0.338 µM (active)
GI50 [30]: 0.153 µM (active)
GI50 [57]: 0.853 µM (active)
GI50 [31]: 0.0359 µM (active)
GI50 [33]: 0.149 µM (active)
GI50 [34]: 0.12 µM (active)

CN(CCN(C)C(=O)CCn1cc(F)c(=O)[nH]c1=O)C(=O)CCn1cc(F)c(=O)[nH]c1=O
GI50 [1]: > 100 µM (inactive)
GI50 [2]: > 100 µM (inactive)
GI50 [36]: > 100 µM (inactive)
GI50 [3]: > 100 µM (inactive)
GI50 [4]: > 100 µM (inactive)
GI50 [6]: > 100 µM (inactive)
GI50 [7]: > 100 µM (inactive)
GI50 [38]: > 100 µM (inactive)
GI50 [39]: > 100 µM (inactive)
GI50 [40]: > 100 µM (inactive)
GI50 [41]: > 100 µM
GI50 [8]: > 100 µM (inactive)
GI50 [9]: > 100 µM (inactive)
GI50 [44]: > 100 µM (inactive)
GI50 [10]: > 100 µM (inactive)
GI50 [11]: > 100 µM (inactive)
GI50 [12]: > 100 µM (inactive)
GI50 [45]: > 100 µM (inactive)
GI50 [13]: > 100 µM (inactive)
GI50 [14]: > 100 µM (inactive)
GI50 [46]: > 100 µM (inactive)
GI50 [15]: > 100 µM (inactive)
GI50 [16]: > 100 µM (inactive)
GI50 [47]: > 100 µM (inactive)
GI50 [48]: > 100 µM (inactive)
GI50 [17]: > 100 µM (inactive)
GI50 [18]: > 100 µM (inactive)
GI50 [49]: 3.16 µM (inactive)
GI50 [19]: > 100 µM (inactive)
GI50 [50]: > 100 µM (inactive)
GI50 [20]: > 100 µM (inactive)
GI50 [21]: > 100 µM (inactive)
GI50 [22]: > 100 µM (inactive)
GI50 [23]: > 100 µM (inactive)
GI50 [24]: > 100 µM (inactive)
GI50 [51]: > 100 µM (inactive)
GI50 [52]: 95.5 µM (inactive)
GI50 [53]: > 100 µM (inactive)
GI50 [25]: > 100 µM (inactive)
GI50 [26]: > 100 µM (inactive)
GI50 [54]: > 100 µM (inactive)
GI50 [28]: > 100 µM (inactive)
GI50 [29]: 36.2 µM (inactive)
GI50 [56]: > 100 µM (inactive)
GI50 [30]: > 100 µM (inactive)
GI50 [57]: > 100 µM (inactive)
GI50 [31]: > 100 µM (inactive)
GI50 [58]: > 100 µM (inactive)
GI50 [33]: > 100 µM (inactive)
GI50 [34]: > 100 µM (inactive)
